According to US12589101B2, “Cyclodextrin protein drug conjugates” (Regeneron Pharmaceuticals, Inc., priority 2017, dated 2026):
In brackets after ≈: the same amount, converted by molar mass.

Key:
[1] = Solubility of linker-payloads (LC-MS standard curve, saturated solution); assay type: physicochemical; conditions: aqueous with cosolvent or surfactant or cyclodextrin, thermodynamic from solid, in 10% DMSO/H2O; read-out: Solubility in other solvents
LXR = system: T1, LXR; assay: THP1/LXR-Luc/Her2 bioassay (LXR activation, luciferase); assay type: cell-based; conditions: THP1/LXR-Luc/Her2 cells, 48-hour incubation
T1 construct: other: THP1/LXR-Luc/Her2 cells, 48-hour incubation, relative to free payload 1d; other: THP1/LXR-Luc/Her2 cells, 48-hour incubation; other: THP1/Her2/LXR-Luc cells; other: differentiated THP1/LXR-Luc cells, 48 hours; other: THP1/LXR-Luc cells, PMA
Description: To test the comparability of ADCs with and without CDs containing LXR agonists anti-HER2 Ab ADC with and without CD were tested for their ability to activate LXR in a THP1/LXR-Luc/Her2 bioassay. In the assay, either THP1/LXR-Luc cells or THP1/LXR-Luc/Her2 cells were seeded onto white 96 well plates at 30,000 cells/well in media containing RPMI supplemented with 10% FBS and pencillin/streptomycinin (complete media). Subsequently 3-fold serial dilutions of antibody drug conjugates, unconjugated antibodies, or free payloads were added to the cells at final concentration ranging from 100 nM to 0.01 nM. After a 48-hour incubation, luciferase activity was determined after the addition of One-Glo™ reagent (Promega, E6130) to each well of cells. Relative light units (RLUs) were measured on a Victor luminometer (PerkinElmer) and the EC50 values were determined using a four-parameter logistic equation over a 10-point dose response curve (GraphPad Prism).

Structure (SMILES) | solubility at 10 min [1] [µg/mL] | EC50 (LXR) [nM] | Maximal activation (LXR; relative to free payload 1d)
CCCC1O[C@@H]2C[C@H]3[C@@H]4CCC5=CC(=O)C=C[C@]5(C)[C@H]4[C@@H](O)C[C@]3(C)[C@]2(C(=O)COc2ccc(NC(=O)[C@H](C)NC(=O)[C@@H](NC(=O)[C@@H](CCCCNC(=O)COC3CCCCCc4c3nnn4CC3OC4OC5C(CO)OC(OC6C(CO)OC(OC7C(CO)OC(OC8C(CO)OC(OC9C(CO)OC(OC3C(O)C4O)C(O)C9O)C(O)C8O)C(O)C7O)C(O)C6O)C(O)C5O)NC(=O)CCOCCOCCOCCOCCNC(=O)CCC(=O)N3Cc4ccccc4C#Cc4ccccc43)C(C)C)cc2)O1 (stereo partly drawn) [Ex46] | 100 (≈ 39.7 µM) |  | 
C[C@]1(C(=O)NC(=O)[C@@]2(C)CCC[C@]3(C)c4cc(O)ccc4CC[C@@H]23)CCC[C@]2(C)c3cc(N)ccc3CC[C@@H]12 [Example 1d, (1S,4aS,10aR)-N-[(1S,4aS,10aR)-6-Amino-1,4a-dimethyl-1,2,3,4,4a,9,10,10a-octahydrophenanthrene-1-carbonyl]-6-hydroxy-1,4a-dimethyl-1,2,3,4,4a,9,10,10a-octahydrophenanthrene-1-carboxamide] |  | 2.8 | Full activation
